What was measured:
[1] = tested on: embryos from zebrafish model of DMD; conditions: Li and Amer, PLoSONE, 2015; cited from earlier work
[2] = target: T1, skeletal myofibrils (Rabbit Psoas), myosin ATPase activity; assay: Skeletal Myofibril ATPase Assay; type: biochemical; conditions: skeletal myofibrils (Rabbit Psoas 0.25 mg/mL), PK/LDH-coupled NADH absorbance at 340 nm
T1 construct: Rabbit Psoas Prep 11 (0.25 mg/mL)
Method in brief: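 PK-LDH coupled assay: ADP from myofibril ATPase drives NADH oxidation, read as A340 every 1.5-2 min over 45 min; rate taken as max−min absorbance. Normalized to 1% DMSO vehicle (100%) and fitted to a four-parameter logistic for IC50, bottom constrained ≥0. Buffer pH 7.0 (PIPES/CaCl2/EGTA).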

Structure (SMILES) | protection of muscles from pathological muscle derangement [1] | IC50 [2]
Cc1ccc(S(=O)(=O)NCc2ccccc2)cc1 [BTS, N-benzyl-p-tolyl-sulfonamide] | protect muscles from pathological muscle derangement | 
O=c1ccc(-c2ccc(Cl)cc2)nn1Cc1cccc(F)c1 [Compound 317, 6-(4-chlorophenyl)-2-(3-fluorobenzyl)pyridazin-3(2H)-one] |  | < 10 µM
